Laboratory results from PubChem BioAssay (NCI).
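96-well plates; 48 h exposure; 5 concentrations. Endpoints by linear interpolation between flanking doses. Not reached: highest tested concentration assigned. GI50: concentration for 50% inhibition of growth. TGI: concentration producing complete growth inhibition.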

Tests used:
Test in all cases: DTP human tumour cell line panel, 48 h
A498 renal = test system: A498 renal
ACHN renal = test system: ACHN renal
BT-549 breast = test system: BT-549 breast
CAKI-1 renal = test system: CAKI-1 renal
CCRF-CEM leukemia = test system: CCRF-CEM leukemia
COLO 205 colon = test system: COLO 205 colon
DU-145 prostate = test system: DU-145 prostate
EKVX NSCLC = test system: EKVX NSCLC
HCC-2998 colon = test system: HCC-2998 colon
HCT-116 colon = test system: HCT-116 colon
HCT-15 colon = test system: HCT-15 colon
HL-60(TB) leukemia = test system: HL-60(TB) leukemia
HOP-62 NSCLC = test system: HOP-62 NSCLC
HOP-92 NSCLC = test system: HOP-92 NSCLC
HS 578T breast = test system: HS 578T breast
IGROV1 ovarian = test system: IGROV1 ovarian
KM12 colon = test system: KM12 colon
LOX IMVI melanoma = test system: LOX IMVI melanoma
M14 melanoma = test system: M14 melanoma
MALME-3M melanoma = test system: MALME-3M melanoma
MCF7 breast = test system: MCF7 breast
MDA-MB-231 breast = test system: MDA-MB-231 breast
MDA-MB-435 = test system: MDA-MB-435
MDA-MB-468 breast = test system: MDA-MB-468 breast
MOLT-4 leukemia = test system: MOLT-4 leukemia
NCI-H226 lung = test system: NCI-H226 lung
NCI-H23 lung = test system: NCI-H23 lung
NCI-H522 lung = test system: NCI-H522 lung
NCI/ADR-RES ovarian = test system: NCI/ADR-RES ovarian
OVCAR-3 ovarian = test system: OVCAR-3 ovarian
OVCAR-4 ovarian = test system: OVCAR-4 ovarian
OVCAR-5 ovarian = test system: OVCAR-5 ovarian
OVCAR-8 ovarian = test system: OVCAR-8 ovarian
PC-3 prostate = test system: PC-3 prostate
RPMI-8226 leukemia = test system: RPMI-8226 leukemia
RXF 393 renal = test system: RXF 393 renal
SF-268 CNS = test system: SF-268 CNS
SF-295 CNS = test system: SF-295 CNS
SF-539 CNS = test system: SF-539 CNS
SK-MEL-2 melanoma = test system: SK-MEL-2 melanoma
SK-MEL-28 melanoma = test system: SK-MEL-28 melanoma
SK-MEL-5 melanoma = test system: SK-MEL-5 melanoma
SN12C renal = test system: SN12C renal
SNB-19 CNS = test system: SNB-19 CNS
SNB-75 CNS = test system: SNB-75 CNS
SW-620 colon = test system: SW-620 colon
T-47D breast = test system: T-47D breast
TK-10 renal = test system: TK-10 renal
UACC-257 melanoma = test system: UACC-257 melanoma
UACC-62 melanoma = test system: UACC-62 melanoma
UO-31 renal = test system: UO-31 renal

COc1ccc(-c2nc3cc(C)ccc3n2CC(=O)N=Nc2c(O)[nH]c3ccc(Cl)cc23)cc1
GI50 (A498 renal): 3.63 µM | TGI (A498 renal): > 100 µM | GI50 (ACHN renal): 2.1 µM | TGI (ACHN renal): 5.67 µM | GI50 (BT-549 breast): 1.97 µM | TGI (BT-549 breast): 4.66 µM | GI50 (CAKI-1 renal): 2.35 µM | TGI (CAKI-1 renal): 24.6 µM | GI50 (CCRF-CEM leukemia): 3.07 µM | TGI (CCRF-CEM leukemia): 60.2 µM | GI50 (COLO 205 colon): 3.15 µM | TGI (COLO 205 colon): 10.2 µM | GI50 (DU-145 prostate): 3.18 µM | TGI (DU-145 prostate): 16.2 µM | GI50 (EKVX NSCLC): 1.91 µM | TGI (EKVX NSCLC): 5.61 µM | GI50 (HCC-2998 colon): 3.16 µM | TGI (HCC-2998 colon): > 100 µM | GI50 (HCT-116 colon): 1.83 µM | TGI (HCT-116 colon): 4 µM | GI50 (HCT-15 colon): 3.64 µM | TGI (HCT-15 colon): > 100 µM | GI50 (HL-60(TB) leukemia): 4.36 µM | TGI (HL-60(TB) leukemia): > 100 µM | GI50 (HOP-62 NSCLC): 2.13 µM | TGI (HOP-62 NSCLC): 5.97 µM | GI50 (HOP-92 NSCLC): 1.48 µM | TGI (HOP-92 NSCLC): 4.63 µM | GI50 (HS 578T breast): 1.79 µM | TGI (HS 578T breast): 6.03 µM | GI50 (IGROV1 ovarian): 3.22 µM | TGI (IGROV1 ovarian): 24.5 µM | GI50 (KM12 colon): 3.01 µM | TGI (KM12 colon): 10 µM | GI50 (LOX IMVI melanoma): 1.78 µM | TGI (LOX IMVI melanoma): 3.93 µM | GI50 (M14 melanoma): 1.9 µM | TGI (M14 melanoma): 4.02 µM | GI50 (MALME-3M melanoma): 2.12 µM | TGI (MALME-3M melanoma): 4.38 µM | GI50 (MCF7 breast): 2.69 µM | TGI (MCF7 breast): 16.2 µM | GI50 (MDA-MB-231 breast): 1.96 µM | TGI (MDA-MB-231 breast): 4.8 µM | GI50 (MDA-MB-435): 2.29 µM | TGI (MDA-MB-435): 6.14 µM | GI50 (MDA-MB-468 breast): 2.29 µM | TGI (MDA-MB-468 breast): 5.05 µM | GI50 (MOLT-4 leukemia): 2.43 µM | TGI (MOLT-4 leukemia): > 100 µM | GI50 (NCI-H226 lung): 1.9 µM | TGI (NCI-H226 lung): 5.18 µM | GI50 (NCI-H23 lung): 2.83 µM | TGI (NCI-H23 lung): 11.3 µM | GI50 (NCI-H522 lung): 3.99 µM | TGI (NCI-H522 lung): 22 µM | GI50 (NCI/ADR-RES ovarian): 2.48 µM | TGI (NCI/ADR-RES ovarian): 7.16 µM | GI50 (OVCAR-3 ovarian): 1.88 µM | TGI (OVCAR-3 ovarian): 3.8 µM | GI50 (OVCAR-4 ovarian): 2.35 µM | TGI (OVCAR-4 ovarian): 6.5 µM | GI50 (OVCAR-5 ovarian): 2.63 µM | TGI (OVCAR-5 ovarian): 10.1 µM | GI50 (OVCAR-8 ovarian): 1.82 µM | TGI (OVCAR-8 ovarian): 3.77 µM | GI50 (PC-3 prostate): 2.38 µM | TGI (PC-3 prostate): 8.6 µM | GI50 (RPMI-8226 leukemia): 3.01 µM | TGI (RPMI-8226 leukemia): > 100 µM | GI50 (RXF 393 renal): 1.49 µM | TGI (RXF 393 renal): 3.9 µM | GI50 (SF-268 CNS): 3 µM | TGI (SF-268 CNS): > 100 µM | GI50 (SF-295 CNS): 2.49 µM | TGI (SF-295 CNS): 8 µM | GI50 (SF-539 CNS): 1.76 µM | TGI (SF-539 CNS): 3.41 µM | GI50 (SK-MEL-2 melanoma): 3.25 µM | TGI (SK-MEL-2 melanoma): 18.6 µM | GI50 (SK-MEL-28 melanoma): 1.82 µM | TGI (SK-MEL-28 melanoma): 3.39 µM | GI50 (SK-MEL-5 melanoma): 2.07 µM | TGI (SK-MEL-5 melanoma): 4.9 µM | GI50 (SN12C renal): 2 µM | TGI (SN12C renal): 6.18 µM | GI50 (SNB-19 CNS): 2.73 µM | TGI (SNB-19 CNS): 9.29 µM | GI50 (SNB-75 CNS): 0.532 µM | TGI (SNB-75 CNS): 4.09 µM | GI50 (SW-620 colon): 2.35 µM | TGI (SW-620 colon): 6.59 µM | GI50 (T-47D breast): 2.73 µM | TGI (T-47D breast): > 100 µM | GI50 (TK-10 renal): 3.43 µM | TGI (TK-10 renal): > 100 µM | GI50 (UACC-257 melanoma): 2.1 µM | TGI (UACC-257 melanoma): 4.99 µM | GI50 (UACC-62 melanoma): 1.58 µM | TGI (UACC-62 melanoma): 3.4 µM | GI50 (UO-31 renal): 3.81 µM | TGI (UO-31 renal): > 100 µM
